# Measurements published in patent US20070167512A1, “Lipid metabolism improving agent” (Kyowa Hakko Kogyo Co., Ltd., priority 2003, published 2007).
# How the values were obtained:
# [1] = test system: KK-Ay/Ta Jcl mice (animal models for hypertriglyceridemia and hyper-free fatty acidemia); assay: Serum triglyceride concentration in KK-Ay/Ta Jcl mice fed compound-supplemented CE-2 feed (Triglyceride G-Test Wako); format: in vivo; conditions: for Triglyceride (serum concentration): KK-Ay/Ta Jcl male mice, 1% by weight in CE-2 feed ad libitum, serum after 18 h fast, 10th-11th day, mean ± standard error (n=5), Group 1 (CE-2 only) 282.4 ± 30.3; for Action for improving hypertriglyceridemia (conclusion) / Serum triglyceride concentration as compared with Group 1 (in words): KK-Ay/Ta Jcl mice, 1% by weight in feed; for Serum triglyceride concentration as compared with Group 1 (in words): t-test, p < 0.01 where significant
# Source text: (§1) KK-Ay/Ta Jcl mice (CLEA JAPAN; males; six weeks age) (25 mice) which are animal models for appearing hypertriglyceridemia and hyper-free fatty acidemia were divided into five groups each comprising five mice and named group 1 to group 5.
# (§2) The mice of group 1 to group 5 were made free to take feed and water. A commercially available feed CE-2 (manufactured by CLEA JAPAN) was ingested to the mice of group 1. CE-2 to which 1% by weight of trans-4-hydroxy-L-proline (manufactured by Kyowa Hakko Kogyo; hereinafter, abbreviated as hydroxyproline) was added was ingested to the mice of group 2. CE-2 to which 1% by weight of trans-N-acetyl-4-hydroxy-L-proline (manufactured by Kyowa Hakko Kogyo; hereinafter, abbreviated as N-acetylhydroxyproline) was added was ingested to the mice of group 3. CE-2 to which 1% by weight of trans-4-hydroxy-L-proline ethyl ester (manufactured by Sanyo Kagaku Kenkyusho; hereinafter, abbreviated as hydroxyproline ethyl ester) was added was ingested to the mice of group 4. CE-2 to which 1% by weight of trans-N,O-diacetyl-4-hydroxy-L-proline oleyl ester (manufactured by Nissei Kagaku; hereinafter, abbreviated as diacetylhydroxyproline oleyl ester) was added was ingested to the mice of group 5.
# (§3) The mice were fasted for 18 hours during the 10th day to the 11th day after the start of the test and whole blood was collected from descending vena carva to prepare serum. Concentration of triglyceride in the serum was measured by a Triglyceride G-Test Wako (manufactured by Wako Pure Chemical) and concentration of free fatty acids therein was measured by an NEFA C-Test Wak (manufactured by Wako Pure Chemical). The value was shown by mean value ± standard error (n=5) and statistic ratio of risk (p value) was determined by a t-test. With regard to the ingested amounts during the test period, there was no significant difference among the groups 1 to 5.
# [2] = test system: KK-Ay/Ta Jcl mice (animal models for hypertriglyceridemia and hyper-free fatty acidemia); assay: Serum free fatty acid concentration in KK-Ay/Ta Jcl mice fed compound-supplemented CE-2 feed (NEFA C-Test); format: in vivo; conditions: for Free Fatty Acid (serum concentration): KK-Ay/Ta Jcl male mice, 1% by weight in CE-2 feed ad libitum, serum after 18 h fast, 10th-11th day, mean ± standard error (n=5), Group 1 (CE-2 only) 1.12 ± 0.05; for Action for improving hyper-free fatty acidemia (conclusion) / Free fatty acid concentration in serum as compared with Group 1 (in words): KK-Ay/Ta Jcl mice, 1% by weight in feed; for Free fatty acid concentration in serum as compared with Group 1 (in words): t-test, p < 0.005 where significant
# Source text: as §1, §2, §3
SMILES,Triglyceride (serum concentration) [1] [mg/dL],Action for improving hypertriglyceridemia (conclusion) [1],Serum triglyceride concentration as compared with Group 1 (in words) [1],Free Fatty Acid (serum concentration) [2] [mEq/l],Action for improving hyper-free fatty acidemia (conclusion) [2],Free fatty acid concentration in serum as compared with Group 1 (in words) [2]
"CCOC(=O)[C@@H]1C[C@@H](O)CN1 [hydroxyproline ethyl ester, trans-4-hydroxy-L-proline ethyl ester]",168.7 ± 13.4,action for improving hypertriglyceridemia,significantly low,0.68 ± 0.02,action for improving hyper-free fatty acidemia,significantly low
"CC(=O)N1C[C@H](O)C[C@H]1C(=O)O [N-acetylhydroxyproline, trans-N-acetyl-4-hydroxy-L-proline]",156.4 ± 23.3,action for improving hypertriglyceridemia,significantly low,0.77 ± 0.06,action for improving hyper-free fatty acidemia,significantly low
"O=C(O)[C@@H]1C[C@@H](O)CN1 [hydroxyproline, trans-4-hydroxy-L-proline]",224.3 ± 23.1,action for improving hypertriglyceridemia,tended to show low values,0.84 ± 0.05,action for improving hyper-free fatty acidemia,significantly low
"CCCCCCCC/C=C\CCCCCCCCOC(=O)[C@@H]1C[C@@H](OC(C)=O)CN1C(C)=O (relative stereo) [diacetylhydroxyproline oleyl ester, trans-N,O-diacetyl-4-hydroxy-L-proline oleyl ester]",217.6 ± 18.3,action for improving hypertriglyceridemia,tended to show low values,1.00 ± 0.07,action for improving hyper-free fatty acidemia,tended to show low values
